The supplement of paper PMC11208160

Assay: recombinant barcode read abundance after kanamycin selection (control-corrected) (log10(CPM+1)); higher = more efficient recombination; sequences stand for … in AGTGCAGAGAAAATCGGCCAGTTTTCTCTGCCTGCAGTCCGCATGCCGT…AGATTTATGCAGCGGACTGCCTTTCTCCCAAAGTGATAAACCGGACAGTATCATGGACCGGTTTTCCCGGTAATCCGTATTTGCAAGGTTGGTTTCACT; site = the 11-nt target
Protocol: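 Pooled E. coli target-specificity screen for the IS621 bridge recombinase. Each library plasmid pairs an 11-nt target (CT core) with a bridge RNA whose target-binding loop (9-nt LTG + 4-nt RTG) is reprogrammed; the rest of the 177-nt WT IS621 bridge RNA scaffold is fixed. The plasmid is co-electroporated with a WT donor plasmid; recombinase is induced with 0.1 mM IPTG and recombinants are selected on kanamycin. Recombinant barcodes are sequenced, converted to CPM, averaged over two biological replicates and corrected by the unselected control CPM. Molecule = full bridge RNA written as DNA: LTG = specificity nt 1-9, RTG = reverse complement of specificity nt 8-11, in the WT scaffold.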
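Further: IS621 recombinase and bridge RNA in Escherichia coli cells.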

“GCCGAGTCTTGGGTTCTAACCTGTTGCTA (site GCCGAGTCTGA)” and “TATTCTCCTTGGGTTCTAACCTGTTGCCT (site TATTCTCCTAC)” are within 0.2 log units of each other in “recombinant barcode read abundance (log10)” value: 0.0866 for the first, 0.0221 for the second.

Compared with “TGTGCTACTTGGGTTCTAACCTGTTGCAC (site GACCTATCTAG)”, “TTGACGACTTGGGTTCTAACCTGTTGCCA (site TTGTCGACTTG)” is lower in “recombinant barcode read abundance (log10)” value: 0.327 for the first, 0.0686 for the second.

Compared with “GAAACTGCTTGGGTTCTAACCTGTTGCCT (site GAAACTGCTAG)”, “ATTAGTGCTTGGGTTCTAACCTGTTGCCT (site ACTAGTGCTAG)” is lower in “recombinant barcode read abundance (log10)” value: 0.736 for the first, 0 for the second.

“CCTAGCACTTGGGTTCTAACCTGTTGCGA (site CCTGGCACTTC)” and “TCCGTGGCTTGGGTTCTAACCTGTTGCCT (site TCCGTGACTAG)” are within 0.2 log units of each other in “recombinant barcode read abundance (log10)” value: 0.0943 for the first, 0.121 for the second.

Going from “TAGTCATCTTGGGTTCTAACCTGTTGCTC (site TAGGCATCTGA)” to “CTAAGGTCTTGGGTTCTAACCTGTTGCGT (site CTAAGGTCTAT)”, the “recombinant barcode read abundance (log10)” value rises from 0.243 to 1.9.

First: GCGATGTCTTGGGTTCTAACCTGTTGCCT (site GAGATGTCTAG)
Second: CTCGACACTTGGGTTCTAACCTGTTGCCT (site CTAGACACTAG)
The “recombinant barcode read abundance (log10)” value of the first is lower: 0.183 for the first, 0.697 for the second.

Going from “CAATATCCTTGGGTTCTAACCTGTTGCCT (site CACTATCCTAG)” to “GCCAGACCTTGGGTTCTAACCTGTTGCCT (site GCCAGACCTAG)”, the “recombinant barcode read abundance (log10)” value rises from 0.0197 to 0.373.

“TGCCCTCCTTGGGTTCTAACCTGTTGCTT (site TCCTCTCCTAA)” and “GTGTCTACTTGGGTTCTAACCTGTTGCCT (site TTGTATACTAG)” are within 0.2 log units of each other in “recombinant barcode read abundance (log10)” value: 0.0862 for the first, 0.0293 for the second.

Going from “AGGCTGGCTTGGGTTCTAACCTGTTGCCT (site AGGCTGCCTAG)” to “CTCGGAGCTTGGGTTCTAACCTGTTGCCT (site CTCGGAACTAG)”, the “recombinant barcode read abundance (log10)” value rises from 0.0205 to 0.499.

Going from “TCGATCCCTTGGGTTCTAACCTGTTGCCT (site TCGATCCCTAG)” to “TACAAGTCTTGGGTTCTAACCTGTTGCGG (site TACAAGGCTCC)”, the “recombinant barcode read abundance (log10)” value falls from 0.577 to 0.0774.

Going from “TAGAACACTTGGGTTCTAACCTGTTGCTA (site TAGAACACTGA)” to “CGACCTACTTGGGTTCTAACCTGTTGCTA (site CGACCTACTTA)”, the “recombinant barcode read abundance (log10)” value falls from 0.71 to 0.088.

“TAGCTTACTTGGGTTCTAACCTGTTGCCG (site TAGCTTACTCG)” and “GAATCCTCTTGGGTTCTAACCTGTTGCCT (site TAATCCTCTAG)” are within 0.2 log units of each other in “recombinant barcode read abundance (log10)” value: 0.523 for the first, 0.483 for the second.

Going from “CTAAAGTCTTGGGTTCTAACCTGTTGCAC (site CTAAAGTCTGG)” to “AGGATCCCTTGGGTTCTAACCTGTTGCAG (site AGGATCCCTAT)”, the “recombinant barcode read abundance (log10)” value rises from 0.0578 to 0.701.

“CTGGGCCCTTGGGTTCTAACCTGTTGCCT (site CTGTGCCCTAG)” and “ATTCACACTTGGGTTCTAACCTGTTGCGT (site CGATTAGCTCG)” are within 0.2 log units of each other in “recombinant barcode read abundance (log10)” value: 0.214 for the first, 0.0576 for the second.

Going from “CACATACCTTGGGTTCTAACCTGTTGCAT (site CACCTTCCTAT)” to “CATAACGCTTGGGTTCTAACCTGTTGCCT (site CATAACGCTAG)”, the “recombinant barcode read abundance (log10)” value rises from 0.0683 to 1.18.

First: ATGAAGACTTGGGTTCTAACCTGTTGCCT (site ATCAAGACTAG)
Second: CACAAGTCTTGGGTTCTAACCTGTTGCAG (site CACAAGTCTCT)
The “recombinant barcode read abundance (log10)” value of the first is lower: 1.07 for the first, 2 for the second.

Going from “TGGACCTCTTGGGTTCTAACCTGTTGCCA (site CTACGAACTCC)” to “GGGGACCCTTGGGTTCTAACCTGTTGCGA (site GGGGACCCTTC)”, the “recombinant barcode read abundance (log10)” value rises from 0.626 to 2.48.

First: ACTCGACCTTGGGTTCTAACCTGTTGCCT (site ACTCGACCTAG)
Second: ACGATATCTTGGGTTCTAACCTGTTGCCT (site ATGATATCTAG)
The “recombinant barcode read abundance (log10)” value of the first is higher: 1.78 for the first, 0.0859 for the second.

Compared with “CGGACGGCTTGGGTTCTAACCTGTTGCCT (site CGGACGACTAG)”, “AGTCTAGCTTGGGTTCTAACCTGTTGCCC (site AGTCTAGCTCG)” is higher in “recombinant barcode read abundance (log10)” value: 0.376 for the first, 1.16 for the second.

“AGTAAGGCTTGGGTTCTAACCTGTTGCCT (site AGTAAGGCTAG)” and “CGGAATCCTTGGGTTCTAACCTGTTGCCT (site CGGAATCCTAA)” are within 0.2 log units of each other in “recombinant barcode read abundance (log10)” value: 0.0834 for the first, 0.198 for the second.

“GGTCACCCTTGGGTTCTAACCTGTTGCGG (site GGTAACCCTCC)” and “ACGGTGACTTGGGTTCTAACCTGTTGCCT (site GCGGTGACTAG)” are within 0.2 log units of each other in “recombinant barcode read abundance (log10)” value: 0.0652 for the first, 0.0376 for the second.

“CGCTGGTCTTGGGTTCTAACCTGTTGCCT (site CGCTGGTCTAG)” and “TCACCACCTTGGGTTCTAACCTGTTGCCT (site GAACCACCTAG)” are within 0.2 log units of each other in “recombinant barcode read abundance (log10)” value: 0.0358 for the first, 0.028 for the second.

Going from “CTTGGATCTTGGGTTCTAACCTGTTGCCT (site CTTGGACCTAG)” to “GGTCGGGCTTGGGTTCTAACCTGTTGCCT (site GGTCGGGCTAG)”, the “recombinant barcode read abundance (log10)” value rises from 0.116 to 0.401.

“GATGCCACTTGGGTTCTAACCTGTTGCCT (site GATGCCACTAG)” and “ACCCTATCTTGGGTTCTAACCTGTTGCCT (site ACCCTATCTAG)” are within 0.2 log units of each other in “recombinant barcode read abundance (log10)” value: 1.53 for the first, 1.39 for the second.

“TACCCACCTTGGGTTCTAACCTGTTGCAG (site CCGAATTCTAA)” and “TTCTACACTTGGGTTCTAACCTGTTGCAT (site GAACCTTCTCC)” are within 0.2 log units of each other in “recombinant barcode read abundance (log10)” value: 0.159 for the first, 0.107 for the second.

Compared with “GAATGAGCTTGGGTTCTAACCTGTTGCCT (site GAATGAGCTAG)”, “CCAAGCGCTTGGGTTCTAACCTGTTGCCT (site CCAAGCACTAG)” is lower in “recombinant barcode read abundance (log10)” value: 1.43 for the first, 0.589 for the second.

Compared with “ATAGGTACTTGGGTTCTAACCTGTTGCTT (site ATAGGTACTAA)”, “CTGCGCTCTTGGGTTCTAACCTGTTGCAT (site CTGCGCTCTAT)” is lower in “recombinant barcode read abundance (log10)” value: 1.65 for the first, 1.22 for the second.

First: AGAGAGACTTGGGTTCTAACCTGTTGCAC (site AGAGAGACTGT)
Second: AACTGTCCTTGGGTTCTAACCTGTTGCAT (site AACTGTCCTAT)
The “recombinant barcode read abundance (log10)” value of the first is higher: 2.18 for the first, 0.805 for the second.

“CGTTGATCTTGGGTTCTAACCTGTTGCCT (site CGTTGTTCTAG)” and “CTTGGATCTTGGGTTCTAACCTGTTGCCT (site CTTGGAACTAG)” are within 0.2 log units of each other in “recombinant barcode read abundance (log10)” value: 0.0674 for the first, 0.142 for the second.

Compared with “ACTGAGTCTTGGGTTCTAACCTGTTGCTT (site ACTGGGTCTAA)”, “TAGCCCACTTGGGTTCTAACCTGTTGCGG (site TAGCTCACTCC)” is higher in “recombinant barcode read abundance (log10)” value: 0.0903 for the first, 0.393 for the second.

Going from “ACCTTGTCTTGGGTTCTAACCTGTTGCCT (site ACCTTGTCTAG)” to “GGCTTACCTTGGGTTCTAACCTGTTGCCT (site GGCTTACCTAG)”, the “recombinant barcode read abundance (log10)” value falls from 0.93 to 0.556.

“ATTACCTCTTGGGTTCTAACCTGTTGCCT (site AGTACCTCTAG)” and “CTCTACCCTTGGGTTCTAACCTGTTGCGT (site CTCTAGCCTAC)” are within 0.2 log units of each other in “recombinant barcode read abundance (log10)” value: 0.0695 for the first, 0.0363 for the second.

“CGGTGAACTTGGGTTCTAACCTGTTGCCT (site CAGTGAACTAG)” and “TACATCCCTTGGGTTCTAACCTGTTGCCT (site TACATCCCTTG)” are within 0.2 log units of each other in “recombinant barcode read abundance (log10)” value: 0.109 for the first, 0.0395 for the second.

Going from “AAGTGAGCTTGGGTTCTAACCTGTTGCAG (site AAGTGAGCTCT)” to “CTCGCGACTTGGGTTCTAACCTGTTGCGG (site CTCGCAGCTCC)”, the “recombinant barcode read abundance (log10)” value falls from 2.69 to 0.655.

“TCGCCTACTTGGGTTCTAACCTGTTGCCG (site TCGCCTACTCG)” and “ACCGTACCTTGGGTTCTAACCTGTTGCCT (site ACCGTAGCTAG)” are within 0.2 log units of each other in “recombinant barcode read abundance (log10)” value: 0.19 for the first, 0.0594 for the second.

Going from “CAACCGTCTTGGGTTCTAACCTGTTGCCT (site CAACCGCCTAG)” to “CGTGCGGCTTGGGTTCTAACCTGTTGCCT (site AGTGCGGCTAG)”, the “recombinant barcode read abundance (log10)” value falls from 0.439 to 0.0463.

Compared with “ACCCGCTCTTGGGTTCTAACCTGTTGCCT (site TAGGATCCTTC)”, “CTAACTGCTTGGGTTCTAACCTGTTGCGT (site CTAACTGCTAC)” is higher in “recombinant barcode read abundance (log10)” value: 0.538 for the first, 0.96 for the second.

Compared with “CATTAGCCTTGGGTTCTAACCTGTTGCCT (site CATGAGCCTAG)”, “GAGTGGCCTTGGGTTCTAACCTGTTGCGT (site GAGTGGCCTAG)” is higher in “recombinant barcode read abundance (log10)” value: 0.0107 for the first, 0.227 for the second.

Compared with “GGGCCTTCTTGGGTTCTAACCTGTTGCAT (site GGGGCTTCTAT)”, “CTCCGGCCTTGGGTTCTAACCTGTTGCTT (site CTCCGTCCTAA)” is lower in “recombinant barcode read abundance (log10)” value: 0.31 for the first, 0.0711 for the second.

Going from “AGTCTAGCTTGGGTTCTAACCTGTTGCTC (site AGTCTAGCTTA)” to “CCGACTTCTTGGGTTCTAACCTGTTGCCT (site CCGACTTCTAG)”, the “recombinant barcode read abundance (log10)” value falls from 0.62 to 0.164.

Compared with “TAGGCTACTTGGGTTCTAACCTGTTGCAG (site TAGGCTACTGT)”, “CACGAGGCTTGGGTTCTAACCTGTTGCCT (site CACGAGACTAG)” is higher in “recombinant barcode read abundance (log10)” value: 0.0351 for the first, 0.707 for the second.
